Results from US11090292B2, “Compositions and methods of use of an inappetance-controlling compound” (Aratana Therapeutics, Inc., priority 2012, dated 2021).

Experiments:
[1] = Example 13: serum capromorelin and pharmacokinetics; assay type: in vivo, cats with compromised kidney function
Protocol: The following study was undertaken to assess multiple points. First, the following experiments were conducted to determine if a formulation of capromorelin, when administered either intravenously or subcutaneously, can stimulate appetite in cats with compromised kidney function. Second, the following experiments were conducted to assess the pharmacokinetic profile of capromorelin in the serum of cats with compromised kidney function. Finally, the following experiments were conducted to determine if capromorelin accumulates in the serum after 14 days of treatment that is subcutaneously administered. Sixteen cats with compromised kidney function were acclimatized for the following study. Animals assigned to Group 1 (n=6) received an intravenous administration of a capromorelin formulation (i.e., capromorelin in sterile water) at a dose of 0.75 mg/kg on Day 0 of the experiment. Animals assigned to Group 2 (n=6) received a subcutaneous administration of a capromorelin formulation (2.1% w/v capromorelin, 1% w/v benzyl alcohol, and citrate buffer) daily for 14 days at a dose of 2 mg/kg. Animals assigned to Group 3 (n=4) served as untreated controls. During the study, blood samples were taken from the Group 1 animals at time points 0 (pre-administration), 5 minutes, 10 minutes, 30 minutes, 1 h, 2 h, 4 h, 6 h, 8 h, and 12 h post administration on Day 0. Blood samples were taken from the Group 2 animals at time points 0 (pre-administration), 15 minutes, 30 minutes, 45 minutes, 1 h, 2 h, 4 h, 6 h, 8 h, and 12 h post administration on Day 0 and time points 0, 30 minutes, 1 h, 2 h, 4 h, and 8 h post administration on Day 13. In addition, body weights were collected on study days −7, −1, and 13 (for Groups 2 and 3 only). Diet consumption was also monitored on study days −7 until day 13 for the animals in Groups 2 and 3 only. Referring to FIGS. 116 and 118, the pharmacokinetics of subcutaneously administered capromorelin were also determined. […] In addition, the mean fraction of the dose absorbed was determined by dividing the mean area under the curve (AUC)/dose of the animals in Group 2, which was divided by AUC/dose of the animals in Group 1. In this case, the mean fraction of the dose (F) absorbed is 1.37.

IGF-1 [2] = assay: Example 12: serum IGF-1; assay type: in vivo, cats; conditions: Day 0
Protocol: Similar to some of the other pharmacokinetic analyses conducted in dogs and cats, an additional pharmacokinetic study was conducted in cats to assess capromorelin formulations that allow sufficient drug to circulate to produce appetite stimulation and to define the capromorelin pharmacokinetic profile in cats. Briefly, twelve cats were randomized into Group 1 (six cats) and Group 2 (six cats). Group 1 received an intravenous formulation that included 0.75 mg/kg of capromorelin dissolved in sterile water and Group 2 received a previously tested formulation via oral gavage. Food consumption was determined daily for all cats. Specifically, animals were offered feed at approximately 11:00 AM, with the removal of feed at approximately 3:00 PM. Upon removal of feed, the amount consumed was calculated. […] Initially, the cats were given a seven day acclimation period to adjust to the experimental conditions and feed provided. After the acclimation period, on Day 0, all animals in Group 1 received an intravenous injection of the composition containing a dose of 0.75 mg/kg of capromorelin. On Day 0, the animals in Group 2 received an oral administration of the formulation via gavage at a dose of 3 mg/kg of capromorelin. […]

IGF-1 [3] = assay: Example 4: serum IGF-1 concentration; assay type: in vivo, Beagle dogs
Protocol: (§1) A controlled, seven-day study was performed to assess the impact of different capromorelin-dosing regimens on the production of IGF-1, GH, and cortisol. The different capromorelin-dosing regimens were also assessed for the impact on food intake and changes in body mass.
(§2) […] were divided into one of three treatment groups, with one negative control group and two active treatment groups. Each of the three treatment groups included three males and three females. The first group received a placebo formulation (i.e., deionized water) twice per day, via oral gavage. The second group received a once-daily dose of the capromorelin composition at a concentration of 3 mg/kg, via oral gavage. The third group received a twice-daily dose of the capromorelin composition at a concentration of 3 mg/kg, via oral gavage.
(§3) During the ten day study period, on an at least once-daily basis, each of the dogs was monitored for clinical observations, mortality, moribundity, body mass, acceptability/palatability, and food consumption. Serum samples were taken to measure capromorelin concentration, GH concentration, IGF-1 concentration, and cortisol concentration. Serum samples were taken on days 1, 2, 4, and 7 at −15 minutes (pre-dose), immediately prior to dosing (0 minutes) and 30, 45, 60, 90, 120, 240, 360, and/or 480 minutes post dosing. Additional serum samples were taken at 8 AM on Day 10 of the study to assess long-term impact of the active treatments.

GH = assay: Example 4: serum GH concentration; assay type: in vivo, Beagle dogs; conditions: once-daily or twice-daily 3 mg/kg, approximately 0.5 h, days 1, 4, 7
Protocol: as §1, §2
as §3, with “Additional serum samples were taken at 8 AM on Day 10 of the study to assess long-term impact of the active treatments.” left out

[4] = Group 1, intravenous 0.75 mg/kg, Day 0
[5] = Group 2, subcutaneous 2 mg/kg daily, Day 13
[6] = Group 2, subcutaneous 2 mg/kg, Day 0

## CN1N=C2CCN(C(=O)[C@@H](COCc3ccccc3)NC(=O)C(C)(C)N)C[C@@]2(Cc2ccccc2)C1=O.O=C(O)C(O)C(O)C(=O)O [capromorelin]
[1]; [4]
  serum concentration of capromorelin at the spike: about 397 ng/mL
  time post-administration of initial spike of serum capromorelin: about 5 minutes
[1]; Group 2, subcutaneous 2 mg/kg
  mean absorption time: 0.4 h
[1]; Group 2, subcutaneous 2 mg/kg daily
  accumulation in the serum after 14 days of treatment: does not accumulate
[1]; [5]
  serum concentration of capromorelin at the spike: about 950 ng/mL
  time post administration of spike in serum capromorelin: 30 min
[1]; [6]
  serum concentration of capromorelin at the spike: about 833 ng/mL
  time post-administration of initial spike of serum capromorelin: about 15 minutes
[1]; cat, serum, sc, Group 2, subcutaneous 2 mg/kg, read-out: geometric Cmax
  Cmax: 893 ng/mL
[1]; cat, serum, Group 1, intravenous 0.75 mg/kg, several of the test animals
  clearance: 20 mL/min/kg
[1]; cat, serum, Group 1, intravenous 0.75 mg/kg, read-out: terminal half-life
  half-life: 40.2 to 54 min
[1]; subcutaneous AUC/dose (Group 2) divided by intravenous AUC/dose (Group 1)
  mean fraction of the dose (F) absorbed: 1.37
IGF-1 [2]
  IGF-1 levels in the serum, Group 1 (IV 0.75 mg/kg) compared to Group 2 (oral 3 mg/kg): greater increased in IGF-1 levels
IGF-1 [3]; Day 10
  serum IGF-1 levels versus deionized water three days after terminating treatment: not significantly different
IGF-1 [3]; once-daily 3 mg/kg, day 1
  increase in serum IGF-1 concentration at eight hours post administration relative to time 0: approximately 83.9%
IGF-1 [3]; once-daily 3 mg/kg, day 4
  increase in serum IGF-1 concentration at eight hours post administration relative to time 0: approximately 39.5%
IGF-1 [3]; once-daily 3 mg/kg, day 7
  increase in serum IGF-1 concentration at eight hours post administration relative to time 0: ~36.8%
IGF-1 [3]; twice-daily 3 mg/kg, day 1
  increase in serum IGF-1 concentration at eight hours post administration relative to time 0: approximately 50.6%
IGF-1 [3]; twice-daily 3 mg/kg, day 4
  increase in serum IGF-1 concentration at eight hours post administration relative to time 0: approximately 15.4%
IGF-1 [3]; twice-daily 3 mg/kg, day 7
  increase in serum IGF-1 concentration at eight hours post administration relative to time 0: ~13.3%
GH
  GH levels in the serum after dosing: marked increase
